{
  "source": "patent US20050260748A1",
  "about": "“Adult stem cells and uses thereof” (Michigan State University, priority 2004, published 2005)",
  "key": {"[1]": {"test_system": "mesenchymal stem cells (adipose stem cells)", "assay": "Effect of lovastatin on formation of calcified ECM during osteogenic differentiation of adipose stem cells", "type": "cell-based, human", "protocol": "Adipose stem cells were tested for their ability to differentiate into osteocytes by culturing the stem cells in a medium composed of a modified MEM (Chang et al. (1981) Somatic Cell Genetics 7: 235) with 10% FBS and supplemented with 0.1 μM dexamethasone, 50 μM L-ascorbate-2-phosphate, and 10 mM […] disodium for about two to four weeks. Osteogenesis was identified by the presence of calcified extracellular matrix (ECM) in unstained cells (FIG. 32(a)) or using Von Kossa staining (FIG. 32(b)), the quantitative measurement of calcium in calcified ECM (Zuk et al. (2001) Tissue Engineering 7: 211), and the quantitative measurement of calcium in culture medium.\nOsteoporosis is a disorder that occurs when the amount of bone removed from the skeleton by bone-resorbing osteoclasts exceeds the amount of bone formed by osteoblasts. Statins may decrease bone resorption by preventing osteoclast activation that is mediated by farnesyl-pp and geranylgeranyl-pp (Cruz et al., (2002) Cleveland Clinic J. Med. 69:277-288). Experiments were performed to test the effect of lovastatin on the formation of calcified ECM using adipocyte cells that were differentiated into osteocytes as described supra. […]"}, "L1SV1A1 cells": {"test_system": "L1SV1A1 cells", "assay": "Albumin expression by immunostaining in immortal liver cell line cultured with hepatocyte growth factor", "type": "cell-based, human", "conditions": "HGF 20 ng/ml in modified Eagle's MEM with high calcium; days after initiation of induction", "protocol": "Both immunostaining and Western blotting were used to characterize gene expression for clonally derived liver cell culture. For immunostaining, the cells grown in 35 mm plates were washed with phosphate-buffered saline (PBS) and fixed with 4% paraformaldehyde in PBS. After rinsing with PBS, the cells were permeabilized (0.5% Triton® X-100, 2% BSA, and 0.05% NaN3 in PBS) for 10 minutes. The cells were then incubated with the primary antibody diluted to the required concentration in PBS/Triton® X-100/BSA overnight at room temperature. After rinsing with PBS, the cells were incubated with a secondary antibody conjugated with FITC or Cy3 in PBS/Triton/BSA buffer for 1 hour at room temperature. […] After thoroughly washing the cells with PBS, the phase image and fluorescence of cells was observed and recorded using a Nikon Elipse TE 300 microscope connected to a digital camera and computer. […]\nFurthermore, cells of the immortal liver cell line L1SV1A1, derived from HL1-1 (described infra), that were cultured in the modified Eagle's MEM (Chang et al. (1981) Somat. Cell Genet. 7: 235-53) containing hepatocyte growth factor (HGF) (He et al. (2003) Differentiation 71: 281-90) (20 ng/ml) expressed the hepatocyte protein, albumin, as detected by immunostaining (FIGS. 21(a)-21(c)). […]"}},
  "data": [
    {"compound": "CC[C@H](C)C(=O)O[C@H]1C[C@@H](C)C=C2C=C[C@H](C)[C@H](CC[C@@H]3C[C@@H](O)CC(=O)O3)[C@H]21", "note": "[lovastatin]", "values": [
      {"measurement": "formation of calcified ECM (microscopic inspection)", "setting": "[1]; 0.2 μM lovastatin added with osteogenic medium, compared to induced control cultures without lovastatin", "result": "significantly less formation of calcified ECM"},
      {"measurement": "total calcium", "setting": "[1]; 0.2 μM lovastatin in osteogenic medium vs induced control, FIG. 35", "result": "confirmed this observation"}
    ]},
    {"compound": "hepatocyte growth factor: hepatocyte growth factor (HGF), used as hepatocyte differentiation agent", "values": [
      {"measurement": "expression of the hepatocyte protein albumin (immunostaining)", "setting": "L1SV1A1 cells", "result": "detectable at 33 days but not at 22 days"}
    ]}
  ]
}
